Assay results taken from patent US9969776B2, “Drug conjugates for delivering compounds to senescent cells” (Unity Biotechnology, Inc., priority 2007, dated 2018).
“Also recorded” adds a separate entry of the source. Where two headings read alike, the source gives them in different places. Where no end group is shown, it is not given here.

Experiments:
[1] = cited from earlier work
normal fibroblasts = test: Cell binding assay with radio-labeled peptide
Protocol: (§1) A senescent cell binding agent (SEQ ID NO:1) was conjugated at its C terminus to the linker sequence GGGC (SEQ ID NO:9) by synthesizing both as a single construct (i.e., SenC; SEQ ID NO:5). The purpose of attaching GGGC was that it can be used to chelate reduced 99m-Tc for radio-labeling. A 2 μL aliquot of conjugated senescent cell binding agent (3 M) was mixed with 40 μL of 0.25 M ammonium acetate, 15 μL of tartrate buffer pH 8.7, 4 μL of stannous chloride in 100 mM of sodium tartrate, and 30 μL of 99m-Tc pertechnetate. The mixture was heated for 25 minutes at 95° C. Quality control was performed with Sep-Pak and was always above 90% purity. A small aliquot was also injected on a Waters 600 HPLC to check the radiological profile. Fractions were collected and read on a gamma counter (Perkin-Elmer Wallac Wizard 1470).
(§2) Binding of radio-labeled SenC (SEQ ID NO:5) to senescent and non-senescent cells was tested by competition with unlabeled SenC. Peptide solutions were prepared to contain 0 or 20 μM of unlabeled SenC, 15 nM radio-labeled SenC, and 0.2% BSA. Chemically-induced senescent fibroblasts, their non-senescent counterparts, and prostate epithelial cells were prepared as above, harvested, and centrifuged. The cell pellets were resuspended in fresh media without FBS, and cells were counted. Peptide solution containing 0 or 20 μM unlabeled SenC and constant concentrations of SenC and 10^5 senescent cells were combined in a final volume of 200 μL of PBS in Eppendorf tubes and incubated for 4 hours. Cells were pelleted by centrifuging at 2500 rpm for 2 minutes and washed twice with PBS and 0.2% BSA. Pellets were suspended in 5 μL PBS and transferred to 12×75 mm tubes for counting radioactivity using a gamma counter (Perkin-Elmer Wallac Wizard 1470).

prostate epithelium = test: Cell binding assay with radio-labeled peptide
Protocol: as §1, §2

senescent cells = test: Cell binding assay with radio-labeled peptide
Protocol: as §1, §2

senescent fibroblasts [2] = test: Cytotoxicity, LDH release (CytoTox-ONE); assay type: cell-based; details: 2 hours at 37° C.
[3] = system: non-senescent fibroblasts; test: Cytotoxicity, LDH release (CytoTox-ONE); assay type: cell-based; details: 2 hours at 37° C.
[4] = system: prostate epithelial cells (RWPE-1); test: Cytotoxicity, LDH release (CytoTox-ONE); assay type: cell-based; details: immortalized prostate epithelial cells RWPE-1, 2 hours at 37° C.
[5] = system: immortalized prostate epithelial cells; test: Cell Proliferation Assay WST-1; assay type: cell-based
Protocol: (§3) Cell proliferation was assayed using the Cell Proliferation Reagent WST-1 (Roche, Mannheim, Germany) by following the manufacturer's instructions.

[6] = system: non-senescent fibroblasts; test: Cell Proliferation Assay WST-1; assay type: cell-based
Protocol: as §3

senescent fibroblasts [7] = test: Cell Proliferation Assay WST-1; assay type: cell-based
Protocol: as §3

[8] = 1×iv, mice; cited from earlier work
[9] = absence of unlabeled peptide, 15 nM radio-labeled SenC, 4 hours
[10] = presence of 20 μM unlabeled SenC

CC[C@]1(O)C[C@@H]2CN(CCc3c([nH]c4ccccc34)[C@@](C(=O)OC)(c3cc4c(cc3OC)N(C)[C@H]3[C@@](O)(C(=O)OC)[C@H](OC(C)=O)[C@]5(CC)C=CCN6CC[C@]43[C@@H]65)C2)C1 [vinblastine]
MTD ([1]; escalating): 3.3-11.1 mg/m^2 | MTD ([1]; rarely to): 18.5 mg/m^2

radio-labeled SenC: SenC (SEQ ID NO:5) radio-labeled with 99m-Tc chelated by GGGC (GVYHFAPLTPTPGGGC; also: 99mTc chelated by GGGC)
specificity of binding (absence vs. presence of unlabeled SenC) (normal fibroblasts): nonspecific | bound peptide, average (normal fibroblasts; [9]): 0.08 % of added dose | bound peptide, average (normal fibroblasts; [10]): 0.09 % of added dose | specificity of binding (absence vs. presence of unlabeled SenC) (prostate epithelium): nonspecific | bound peptide, average (prostate epithelium; [9]): 0.06 % of added dose | bound peptide, average (prostate epithelium; [10]): 0.06 % of added dose | specificity of binding (absence vs. presence of unlabeled SenC) (senescent cells): specific binding | bound peptide, average (senescent cells; [9]): 0.32 % of added dose | bound peptide, average (senescent cells; [10]): 0.25 % of added dose

GVYHFAPLTPTPGGGSKFAKFAKKFAKFAK (GVYHFAPLTPTPGGSKFAKFAKKFAKFAK) [SenL]
cell death (percentage of cells killed) (senescent fibroblasts [2]): dose-dependent cell death at a significantly higher rate than either non-senescent fibroblasts or prostate epithelial cells | cell death (percentage of cells killed) [3]: some cytotoxicity is observed | cell death (percentage of cells killed) [4]: no cell death at all; also recorded: No cell death was observed | cell proliferation (WST-1, metabolic activity) [5]: no change in cell proliferation; also recorded: no significant effect on metabolic activity | cell proliferation (WST-1, metabolic activity) [6]: no change in cell proliferation; also recorded: no significant effect on metabolic activity | cell proliferation (WST-1, metabolic activity) (senescent fibroblasts [7]): no change in cell proliferation; also recorded: no significant effect on metabolic activity

CC[C@@]1(O)C(=O)OCc2c1cc1n(c2=O)Cc2cc3c(CN(C)C)c(O)ccc3nc2-1 [topotecan]
LD1Omice [8]: 75 mg/m^2
